Measurements reported in ChEMBL document CHEMBL2406920, “Synthesis, biological evaluation, X-ray molecular structure and molecular docking studies of RGD mimetics containing 6-amino-2,3-dihydroisoindolin-1-one fragment as ligands of integrin αIIbβ₃” (Bioorg Med Chem, 2013).

The compounds below were run against Integrin alpha-IIb/beta-3 (Homo sapiens, UniProt P05106+P08514) (assay: Inhibition of FITC-labeled fibrinogen binding to integrin alpha2bbeta3 receptor in human platelets by flow cytometry).
Sequence of Integrin alpha-IIb/beta-3 (P05106 27-788 limits assumed): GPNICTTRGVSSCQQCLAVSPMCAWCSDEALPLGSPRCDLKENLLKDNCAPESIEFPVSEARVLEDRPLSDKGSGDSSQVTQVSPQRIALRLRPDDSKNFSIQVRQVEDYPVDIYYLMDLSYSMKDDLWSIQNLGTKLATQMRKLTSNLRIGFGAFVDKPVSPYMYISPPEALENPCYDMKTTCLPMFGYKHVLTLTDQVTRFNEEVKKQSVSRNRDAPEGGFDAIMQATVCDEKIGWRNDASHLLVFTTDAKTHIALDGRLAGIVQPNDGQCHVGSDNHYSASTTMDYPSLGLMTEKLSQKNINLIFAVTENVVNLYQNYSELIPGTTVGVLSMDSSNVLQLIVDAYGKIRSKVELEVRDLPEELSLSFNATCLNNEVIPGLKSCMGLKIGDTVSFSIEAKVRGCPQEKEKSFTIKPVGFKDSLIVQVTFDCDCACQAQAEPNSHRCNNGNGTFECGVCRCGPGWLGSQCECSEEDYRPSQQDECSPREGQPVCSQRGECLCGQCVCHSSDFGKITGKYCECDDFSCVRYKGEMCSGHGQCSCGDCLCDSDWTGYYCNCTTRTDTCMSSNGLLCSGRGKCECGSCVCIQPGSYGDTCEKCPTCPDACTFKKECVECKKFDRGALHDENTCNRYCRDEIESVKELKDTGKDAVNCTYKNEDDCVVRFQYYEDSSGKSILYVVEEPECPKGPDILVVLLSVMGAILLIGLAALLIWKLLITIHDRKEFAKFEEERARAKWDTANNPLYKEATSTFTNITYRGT
Sequence of Integrin alpha-IIb/beta-3 (P08514 32-887 limits assumed): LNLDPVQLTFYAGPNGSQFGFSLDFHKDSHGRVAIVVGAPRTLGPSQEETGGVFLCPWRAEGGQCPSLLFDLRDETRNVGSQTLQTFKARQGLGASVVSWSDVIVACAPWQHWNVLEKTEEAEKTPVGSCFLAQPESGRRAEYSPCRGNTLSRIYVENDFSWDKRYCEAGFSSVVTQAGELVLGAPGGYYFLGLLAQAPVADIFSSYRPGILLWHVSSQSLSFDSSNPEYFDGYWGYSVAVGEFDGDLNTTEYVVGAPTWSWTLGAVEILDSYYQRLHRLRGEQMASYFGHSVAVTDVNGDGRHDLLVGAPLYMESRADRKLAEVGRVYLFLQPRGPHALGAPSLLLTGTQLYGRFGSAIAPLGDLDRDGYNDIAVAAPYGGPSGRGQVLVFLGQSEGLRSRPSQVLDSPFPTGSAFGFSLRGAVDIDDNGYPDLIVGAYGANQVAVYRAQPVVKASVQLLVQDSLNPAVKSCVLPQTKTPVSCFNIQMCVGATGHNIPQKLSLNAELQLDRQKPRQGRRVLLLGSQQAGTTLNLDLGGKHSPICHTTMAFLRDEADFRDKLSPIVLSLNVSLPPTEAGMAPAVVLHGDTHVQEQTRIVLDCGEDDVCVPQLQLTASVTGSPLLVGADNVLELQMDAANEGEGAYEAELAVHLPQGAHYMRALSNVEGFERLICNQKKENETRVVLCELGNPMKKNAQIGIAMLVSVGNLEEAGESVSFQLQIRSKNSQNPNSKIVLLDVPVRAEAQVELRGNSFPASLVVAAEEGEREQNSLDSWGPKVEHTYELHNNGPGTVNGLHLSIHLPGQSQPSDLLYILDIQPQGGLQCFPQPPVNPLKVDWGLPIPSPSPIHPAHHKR
Sequence of Integrin alpha-IIb/beta-3 (P08514 891-1039 limits assumed): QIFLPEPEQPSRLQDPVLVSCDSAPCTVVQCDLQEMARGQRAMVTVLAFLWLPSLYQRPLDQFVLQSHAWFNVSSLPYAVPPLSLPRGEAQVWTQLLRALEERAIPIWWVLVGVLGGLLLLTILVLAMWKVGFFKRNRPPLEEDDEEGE
Compound `O=C(O)CCN1Cc2ccc(NC(=O)CCCC3CCNCC3)cc2C1=O` has an IC50 of 5.5 nM.
For `O=C(O)CCN1Cc2ccc(NC(=O)c3ccc4c(c3)CNCC4)cc2C1=O`, the IC50 was 6.5 nM.
Compound `O=C(O)CCN1Cc2ccc(NC(=O)c3ccc(C4CCNCC4)cc3)cc2C1=O` has an IC50 of 6.8 nM.
For `O=C(O)CN1Cc2ccc(NC(=O)c3ccc4c(c3)CNCC4)cc2C1=O`, the IC50 was 1200 nM.
Compound `CC(CC(=O)O)N1Cc2ccc(NC(=O)c3ccc4c(c3)CNCC4)cc2C1=O` (racemic) has an IC50 of 6.5 nM.
`CC(CC(=O)O)N1Cc2ccc(NC(=O)c3ccc(N4CCNCC4)cc3)cc2C1=O` (racemic) gave an IC50 of 37 nM.
For `O=C(O)CN1Cc2ccc(NC(=O)c3ccc(C4CCNCC4)cc3)cc2C1=O`, the IC50 was 270 nM.
`CC(CC(=O)O)N1Cc2ccc(NC(=O)CCCC3CCNCC3)cc2C1=O` (racemic) gave an IC50 of 350 nM.

What follows are compounds tested on Platelet (assay: Inhibition of ADP-induced human platelet aggregation in platelet-rich plasma by Born's method).
Assay type: functional
In the case of `CC(CC(=O)O)N1Cc2ccc(NC(=O)CC3CCNCC3)cc2C1=O` (racemic), the IC50 is reported as 2700 nM.
Compound `CCCCS(=O)(=O)N[C@@H](Cc1ccc(OCCCCC2CCNCC2)cc1)C(=O)O` [TIROFIBAN] has an IC50 of 32 nM.
In the case of `O=C(O)CN1Cc2ccc(NC(=O)c3ccc(N4CCNCC4)cc3)cc2C1=O`, the IC50 is reported as 3300 nM.
With `O=C(O)CN1Cc2ccc(NC(=O)CC3CCNCC3)cc2C1=O` the IC50 was 51000 nM.
`O=C(O)CCN1Cc2ccc(NC(=O)c3cccc(N4CCNCC4)c3)cc2C1=O` showed an IC50 of 2700 nM.
`O=C(O)CCCN1Cc2ccc(NC(=O)CC3CCNCC3)cc2C1=O` was tested, and the IC50 was 1800 nM.
`CC(CC(=O)O)N1Cc2ccc(NC(=O)c3cccc(N4CCNCC4)c3)cc2C1=O` (racemic) showed an IC50 of 62000 nM.
For `O=C(O)CCN1Cc2ccc(NC(=O)CC3CCNCC3)cc2C1=O`, the IC50 was 7400 nM.
